Experimental data: patent publication US20230080054A1 (ILDONG PHARMACEUTICAL CO., LTD., priority 2021, published 2023)

Key:
human ANO6 [1] = biological target: T1, human ANO6 (Homo sapiens, UniProt Q4KMQ2); assay: LACT C2 assay (phosphatidylserine scramblase function assay); assay type: cell-based; settings: FRT cells expressing human ANO6, 10 μM ionomycin; for inhibition at 0.1 µM: test compound 100 nM, read-out: Inhibition Level 100 nM; for inhibition at 1 µM: test compound 1 μM, read-out: Inhibition Level 1 μM
T1 construct: expressed in transfected cells
T1 sequence (Q4KMQ2 1-931 isoform Q4KMQ2-2): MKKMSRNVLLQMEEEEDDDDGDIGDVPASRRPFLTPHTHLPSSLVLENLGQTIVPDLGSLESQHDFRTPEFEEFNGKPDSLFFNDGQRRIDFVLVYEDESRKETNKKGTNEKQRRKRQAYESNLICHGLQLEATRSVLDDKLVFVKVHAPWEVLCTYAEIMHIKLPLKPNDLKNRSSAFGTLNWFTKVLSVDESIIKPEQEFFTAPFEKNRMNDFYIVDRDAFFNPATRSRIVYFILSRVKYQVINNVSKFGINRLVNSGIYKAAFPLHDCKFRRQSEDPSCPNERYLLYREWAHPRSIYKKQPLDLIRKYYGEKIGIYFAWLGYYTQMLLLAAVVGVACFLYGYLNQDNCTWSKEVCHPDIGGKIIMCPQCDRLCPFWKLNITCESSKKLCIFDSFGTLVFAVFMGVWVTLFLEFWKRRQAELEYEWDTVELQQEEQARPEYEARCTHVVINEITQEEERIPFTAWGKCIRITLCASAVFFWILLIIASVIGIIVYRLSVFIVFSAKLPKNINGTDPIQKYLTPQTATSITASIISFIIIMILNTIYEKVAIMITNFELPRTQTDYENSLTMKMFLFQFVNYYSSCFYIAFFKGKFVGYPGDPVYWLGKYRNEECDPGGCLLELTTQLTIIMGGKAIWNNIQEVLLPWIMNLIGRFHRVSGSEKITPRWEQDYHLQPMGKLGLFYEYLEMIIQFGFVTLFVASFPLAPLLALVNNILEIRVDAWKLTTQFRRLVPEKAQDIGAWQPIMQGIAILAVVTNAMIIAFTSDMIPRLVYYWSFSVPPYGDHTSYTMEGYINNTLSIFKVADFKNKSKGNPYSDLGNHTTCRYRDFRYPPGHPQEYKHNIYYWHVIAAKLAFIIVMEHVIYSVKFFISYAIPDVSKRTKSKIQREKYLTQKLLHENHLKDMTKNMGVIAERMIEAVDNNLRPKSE
In short: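 FRT cells stably expressing human ANO6 were pretreated with compound (1% DMSO) for 10 min, then stimulated with 10 μM ionomycin for 10 min. Surface phosphatidylserine was stained with 500 nM Lact-C2-GFP and quantified by imaging. Inhibition was scaled between unstimulated (100%) and ionomycin-only (0%) controls, averaged over triplicates.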

human ANO6 [2] = biological target: T1, human ANO6; assay: YFP quenching assay (ANO6 ion channel activity); assay type: cell-based; settings: test compound 1 μM, 10 μM ionomycin, read-out: Inhibition Level 1 μM
In short: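 FRT cells stably expressing human ANO6 and YFP-H148Q/I152L/F46L, preincubated 10 min at 40° C with compounds (1% DMSO) in PBS. Quench read every 0.4 s after injecting 140 mM SCN- with 10 μM ionomycin; % inhibition from the 3.6–7.6 s fluorescence difference, normalised to no-ionomycin (100%) and ionomycin-only (0%) wells, duplicate or triplicate.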

O=C(N[C@@H]1C[C@H]1c1ccccc1)c1cccc(Nc2ccc(-c3ccccc3)nn2)c1 [Compound 68, N-[(1R,2S)-2-phenylcyclopropyl]-3-[(6-phenylpyridazin-3-yl)amino]benzamide]
≥ 60%: inhibition at 0.1 µM (human ANO6 [1]) | inhibition at 1 µM (human ANO6 [1]) | inhibition at 1 µM (human ANO6 [2])

O=C(NCCc1cccc(C(F)(F)F)c1)c1cccc(Nc2ncc(-c3cccc(F)c3)cn2)c1 [Compound 79, 3-{[5-(3-fluorophenyl)pyrimidin-2-yl]amino}-N-{2-[3-(trifluoromethyl)phenyl]ethyl}benzamide]
≥ 60%: inhibition at 0.1 µM (human ANO6 [1]) | inhibition at 1 µM (human ANO6 [1]) | inhibition at 1 µM (human ANO6 [2])

O=C(NCCC1CCCCC1)c1cccc(Nc2ncc(-c3cccc(F)c3)cn2)c1 [Compound 80, N-(2-cyclohexylethyl)-3-{[5-(3-fluorophenyl)pyrimidin-2-yl]amino}benzamide]
≥ 60%: inhibition at 0.1 µM (human ANO6 [1]) | inhibition at 1 µM (human ANO6 [1]) | inhibition at 1 µM (human ANO6 [2])

O=C(Nc1ccc(Cl)c(Cl)c1)c1cccc(Nc2ncc(-c3cccc(F)c3)cn2)c1 [Compound 118, N-(3,4-dichlorophenyl)-3-{[5-(3-fluorophenyl)pyrimidin-2-yl]amino}benzamide]
≥ 60%: inhibition at 0.1 µM (human ANO6 [1]) | inhibition at 1 µM (human ANO6 [1]) | inhibition at 1 µM (human ANO6 [2])

O=C(N[C@@H]1C[C@H]1c1ccccc1)c1cccc(Nc2ncc(-c3cccc(F)c3)cn2)c1 [Compound 119, 3-{[5-(3-fluorophenyl)pyrimidin-2-yl]amino}-N-[(1R,2S)-2-phenylcyclopropyl]benzamide]
≥ 60%: inhibition at 0.1 µM (human ANO6 [1]) | inhibition at 1 µM (human ANO6 [1]) | inhibition at 1 µM (human ANO6 [2])

O=C(Nc1cccc(F)c1)c1cccc(Nc2ccc(-c3cccc(F)c3)cn2)c1 [Compound 122, N-(3-fluorophenyl)-3-{[5-(3-fluorophenyl)pyridin-2-yl]amino}benzamide]
≥ 60%: inhibition at 0.1 µM (human ANO6 [1]) | inhibition at 1 µM (human ANO6 [1]) | inhibition at 1 µM (human ANO6 [2])

O=C(N[C@@H]1C[C@H]1c1ccccc1)c1cccc(Nc2ccc(-c3cccc(F)c3)cn2)c1 [Compound 123, 3-{[5-(3-fluorophenyl)pyridin-2-yl]amino}-N-[(1R,2S)-2-phenylcyclopropyl]benzamide]
≥ 60%: inhibition at 0.1 µM (human ANO6 [1]) | inhibition at 1 µM (human ANO6 [1]) | inhibition at 1 µM (human ANO6 [2])
